Values quoted from earlier work in patent EP0716679B1, “METHOD OF CLEANING VINYL SURFACES BY MEANS OF MILDLY ACIDIC HARD SURFACE CLEANING COMPOSITIONS CONTAINING AMINE OXIDE DETERGENT SURFACTANTS” (THE PROCTER & GAMBLE COMPANY, priority 1993, dated 1995).
Where two headings read alike, the source gives them in different places.

| SMILES | pKa of acidifying agent (first pKa) | pKa of acidifying agent (fourth pKa printed) | pKa of acidifying agent (second pKa) | pKa of acidifying agent (third pKa printed) |
| --- | --- | --- | --- | --- |
| O=C(O)CN(CCN(CC(=O)O)CC(=O)O)CC(=O)O [Ethylene diamine tetraacetic acid] | 1.7 | 10.6 | 2.6 | 6.3 |
| O=C(O)CC(O)C(=O)O (stereo not shown) [Malic acid] |  |  | 5.05 |  |
